Key:
[1] = system: mGRFT binding to biotinylated Man-9; experiment: BLI competition assay against immobilized Man-9; parameters: species or system Griffithsia; conditions: Man-9 immobilized
Experimental: To further probe this ultra-high-affinity interaction, we performed a BLI competition assay to determine whether the [2DEG]^2+ complex could outcompete mGRFT’s natural ligand, Man-9. Biotinylated Man-9 was immobilized on the BLI biosensor tip, which was then dipped into solutions containing mGRFT that was pre-incubated with varying concentrations of [2DEG]^2+. […] More broadly, this finding highlights the power of rational synthetic design to generate glycomimetics capable of outperforming their biological counterparts.
(§1) All BLI experiments were performed at 25 °C on an Octet R2 instrument using SA or NiNTA biosensors. Ligand was loaded onto the biosensors followed by a baseline then association and dissociation phase. Biosensors were regenerated and this process was repeated for varying concentrations of analyte. Data was processed in Octet analysis studio 13.0. The samples were double referenced, first to a reference sensor then to a well containing no analyte. The trace responses were aligned to the average of the final 5s of the baseline and inter-step corrected to the dissociation step. A Savitzky-Golay filter was applied to reduce high frequency noise. The association and dissociation phases were fit globally to a 1:1 single exponential binding model. All conditions were run in triplicate.

[2] = target: monomeric Griffithsin (mGRFT) (Griffithsia sp., UniProt P84801, INS16GS); experiment: Biolayer interferometry (BLI) binding to mGRFT; conditions: for Kd: mGRFT as the analyte, 25 °C
Experimental: as §1

[3] = target: GRFT; parameters: method as in PMID 17340634; conditions: free mannose; cited from earlier work
[4] = target: mGRFT (Griffithsia sp., UniProt P84801, INS16GS); experiment: Isothermal titration calorimetry (ITC) binding to mGRFT; conditions: two-site model
Sequence of mGRFT (P84801 whole entry, stated change not applied): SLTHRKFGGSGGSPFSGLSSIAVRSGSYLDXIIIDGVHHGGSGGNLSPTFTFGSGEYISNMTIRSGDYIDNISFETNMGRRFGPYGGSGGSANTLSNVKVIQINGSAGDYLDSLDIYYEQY

Sequence of monomeric Griffithsin (mGRFT) (P84801 whole entry, stated change not applied): as above

In the case of `OC[C@H]1O[C@H](O[C@@H]2[C@@H](OCCOCCOc3ccc(/C=N/CCN(CC/N=C/c4ccc(OCCOCCO[C@H]5O[C@H](CO)[C@@H](O)[C@H](O)[C@@H]5O[C@H]5O[C@H](CO)[C@@H](O)[C@H](O)[C@@H]5O)cn4)CC/N=C/c4ccc(OCCOCCO[C@H]5O[C@H](CO)[C@@H](O)[C@H](O)[C@@H]5O[C@H]5O[C@H](CO)[C@@H](O)[C@H](O)[C@@H]5O)cn4)nc3)O[C@H](CO)[C@@H](O)[C@@H]2O)[C@@H](O)[C@@H](O)[C@@H]1O.[Fe+2]` [[2DEG]^2+], the “reduction of BLI response in the association phase” value ([1]; 0.5 molar equivalents of complex pre-incubated with mGRFT) is reported as “approximately 50%”, the “reduction of BLI response in the association phase” value ([1]; two molar equivalents of complex pre-incubated with mGRFT) is reported as “nearly eliminating the response entirely” and the dissociation rate kd ([2]; 1:1 binding model) is reported as “no measurable dissociation”.
For `OC[C@H]1OC(O)[C@@H](O)[C@@H](O)[C@@H]1O` (stereo partly shown) [free mannose, mannose], the Kd [3] is listed as 102 µM.
With Man-5 the Kd ([2]; biotinylated Man-5 as the ligand, kinetic fitting and steady state analysis) was 40 ± 10 µM.
Man-9 gave a Kd ([2]; biotinylated Man-9 as the ligand) of 0.067 ± 0.001 µM.
With `OC[C@H]1O[C@H](OCCOCCOc2ccc(/C=N/CCN(CC/N=C/c3ccc(OCCOCCO[C@H]4O[C@H](CO)[C@@H](O)[C@H](O)[C@@H]4O)cn3)CC/N=C/c3ccc(OCCOCCO[C@H]4O[C@H](CO)[C@@H](O)[C@H](O)[C@@H]4O)cn3)nc2)[C@@H](O)[C@@H](O)[C@@H]1O.[Fe+2]` [[1DEG]^2+, [Fe(DEGman)3][SO4]] the “stoichiometry of each interaction” value [4] was “one”.

— publication doi:10.64898/2025.12.17.694979, “Tunable multivalent Fe(II)-based glycoassemblies as mimetics for native high-mannose glycans” (bioRxiv, 2025)
